This note sets out measurements from ChEMBL document CHEMBL1157539, “Thousands of chemical starting points for antimalarial lead identification” (Nature, 2010).

The assay concerns Plasmodium falciparum. The assay can be described thus: GSK_TCMDC: Inhibition of Plasmodium falciparum 3D7 in whole erythrocytes, using parasite LDH activity as an index of growth. Format: functional, organism-based. The note with it: Plasmodium falciparum, 3D7.
For the compound `Cn1c(=O)c(-c2c(Cl)cccc2Cl)cc2cnc(Nc3ccc(N4CCOCC4)cc3)nc21`, the XC50 is 0.161 µM.

The compound `CCCc1cc2c3c(N)nc(N)nc3ccc2n1C(CC)CC` had an XC50 of 0.0032 µM.

`CC(C)N1CCC(N(Cc2ccc(-c3ccc(C(F)(F)F)cc3)cc2)C(=O)Cn2c(CCc3cccc(F)c3F)cc(=O)c3ccccc32)CC1` registered an XC50 of 0.85 µM.

As to `COc1ccc(NC(=O)/C=C/c2cc(F)cc(C(F)(F)F)c2)cc1OCCN(C(C)C)C(C)C`, the XC50 stood at 0.669 µM.

Regarding `CCCc1cc(=O)[nH]c(-n2nc(C)cc2NC(=O)C(CC)c2ccccc2)n1` (configuration not stated), the XC50 worked out at 0.944 µM.

In turn, `COc1ccc(C(C(=O)NC2CCN(C[C@H](O)c3ccnc4ccc(OC)cc34)CC2)N2CCN(Cc3ccccc3)CC2)cc1` (some centres not stated) had an XC50 of 0.149 µM.

`Cc1cccc2nc(-c3cccc(-c4ccc(NC(=O)Cc5c[nH]cn5)cc4)c3)[nH]c12` showed an XC50 of 0.688 µM.

With `COc1ccc(-n2ncc(C(=O)N3CCC4(C3)C(=O)N(c3ccccc3)c3ccccc34)c2C)cc1` (configuration not stated), the XC50 is 0.932 µM.

Turning to `COc1cc(NC(=O)N2CCc3cc(OC)c(OCCN4CCCCC4)cc32)cc(C(F)(F)F)c1`, the XC50 was determined as 1.15 µM.

`Cc1cc(N[C@@H](CC(C)C)C(=O)NCCc2ccccc2)nc(NCc2ccccc2C)n1` yielded an XC50 of 0.906 µM.

On to `CCCNCc1ccc(-c2ccc(CN(Cc3cccs3)C(=O)C3CCN(C)CC3)cc2)nc1`, for which the XC50 stood at 0.665 µM.

Take `CC(C)C[C@H]1c2[nH]c3ccc(Cl)cc3c2CCN1C(=O)CCc1ccccc1`: the XC50 is 0.885 µM.

As to `CC1(C)N=C(N)N=C(N)N1c1cc(Cl)c(Cl)c(Cl)c1`, the XC50 was determined as 0.0114 µM.

As for `CCCNCc1ccc(-c2ccc(CN(CCOC)C(=O)CCCOCc3ccccc3)cc2)nc1`, the XC50 was determined as 1.16 µM.

As for `O=C(Nc1ccc(N2CCCN(Cc3cccc(F)c3)CC2)cc1)c1ccccc1`, the XC50 amounted to 0.961 µM.

In turn, `Cc1cccc2nc(-c3cccc(-c4ccc(NC(=O)C5CC(=O)Nc6ccccc65)cc4)c3)[nH]c12` (configuration not stated) returned an XC50 of 0.685 µM.

For the compound `O=[N+]([O-])c1ccc(N2CCCN(C(=S)Nc3ccc(F)cc3Br)CC2)nc1`, the XC50 was found to be 0.302 µM.

Compound `CC(c1cccc(S(=O)(=O)NCc2ccc(Cl)cc2Cl)c1)N1CCC(N2CCCCC2)CC1` (configuration not stated) came in with an XC50 of 0.747 µM.

`O=C(Nc1cccc(CN2CCCN(Cc3ccc4c(c3)OCO4)CC2)c1)c1ccc2ccccc2c1` registered an XC50 of 1.05 µM.

For `COc1ccc(-c2cncc(-c3ccc(OC)c(OC)c3)n2)cc1OC`, the XC50 is 0.777 µM.

In turn, `CC(Sc1nc(-c2ccccc2)c(-c2ccccc2)o1)C(=O)NC1CC1` (configuration not stated) showed an XC50 of 0.843 µM.

In turn, `[O-][S+]1c2ccccc2Sc2ccccc21` yielded an XC50 of 0.168 µM.

For the compound `COc1cc2cc(C(=O)Nc3ccccc3)c(N)nc2cc1OC`, the XC50 stood at 1.13 µM.

As to `COc1cccc(CCNCc2ccc(-c3cccc(CNC4CCCC4)c3)cc2)c1`, the XC50 was 0.734 µM.

The compound `O=C(O)CCCN1CCCC(=C(c2ccccc2)c2ccccc2)C1` yielded an XC50 of 1.19 µM.

`COc1ccc(NC(=O)[C@H](Cc2ccccc2)Nc2cc(C)nc(NCCN3CCCC3)n2)cc1` showed an XC50 of 1.39 µM.

Compound `COc1ccc(C(=O)NCc2ccccc2-c2ccc(C(C)(C)C)cc2)cc1O` showed an XC50 of 0.0996 µM.

In the case of `O=C(Cc1ccc(-c2ccccc2)cc1)N[C@H]1CCN(Cc2ccc(OCCCN3CCCCC3)cc2)C1`, the XC50 came out at 0.772 µM.

With `Nc1cc(-c2cc3c(OCc4ccccc4)cccc3[nH]2)ccn1`, the XC50 was determined as 1.19 µM.

The compound `COc1ccc2nccc([C@@H](O)CN3CCC(NC(=O)c4ccc5nc(-n6cccc6)sc5c4)CC3)c2c1` returned an XC50 of 1 µM.

`O=C(Nc1cccc(-c2cccc(CN3CCCC3)c2)c1)c1cccc(Cl)c1` gave an XC50 of 1.18 µM.

The compound `O=S(=O)(/C=C/c1ccccc1)N(Cc1ccc(-c2ccc(CNCCc3ccccc3)cc2)cc1)CC1CCCCN1` (configuration not stated) gave an XC50 of 0.794 µM.

`COc1cc2nc(NCCn3cccn3)nc(NCCc3ccccc3)c2cc1OC` returned an XC50 of 0.281 µM.

Compound `COc1ccc2nccc(CCN3CC(O)C(CNCc4ccc5c(n4)NC(=O)CS5)C3)c2n1` (configuration not stated) registered an XC50 of 1.46 µM.

The compound `COc1ccc2c(Nc3ccc(N4CCN(C)CC4)cc3)cc(C)nc2c1` registered an XC50 of 0.719 µM.

For the compound `COc1ccc(-c2cc3nc4c(c(NCCCn5ccnc5)n3n2)CCCC4)cc1`, the XC50 is 0.73 µM.

The compound `Oc1cc(Nc2ccnc3cc(-c4ccc(CN5CCCCC5)o4)ccc23)c(Cl)cc1F` had an XC50 of 0.122 µM.

`Cc1cccc(CCCNC(=O)CN(c2cccc(C(F)(F)F)c2)S(=O)(=O)c2ccc(C(F)(F)F)cc2)c1` displayed an XC50 of 0.684 µM.

For `Cc1cc(C(=O)N(Cc2ccc(-c3ccc(CNCCc4ccc(S(C)(=O)=O)cc4)cn3)cc2)C(C)CN(C)C)ccc1[N+](=O)[O-]` (configuration not stated), the XC50 amounted to 0.789 µM.

Regarding `CCOCc1cnc(C)nc1NCC(=O)c1c(C)[nH]c2cc(C)ccc12`, the XC50 was 1.21 µM.

For `Cc1cccc2nc(-c3ccc(-c4ccc(NC(=O)NCc5ccc(F)cc5)cc4)cc3)[nH]c12`, the XC50 was 1.33 µM.

In turn, `O=C(Nc1ccc(C(F)(F)F)cc1)NC1CCN(c2ccnc3ccccc23)CC1` had an XC50 of 0.185 µM.

With `C[C@H](NC(=O)[C@H](CCCCNC(=O)OC(C)(C)C)NC(=O)OC(C)(C)c1ccc(-c2ccccc2)cc1)C(=O)OCc1ccccc1`, the XC50 turned out to be 0.181 µM.

`COc1ccccc1N1CCN(C(C(=O)NCc2ccc(C)cc2)c2ccc(C)cc2)CC1` (configuration not stated) came in with an XC50 of 0.932 µM.

For the compound `Cc1cc(=O)c(C2CCC(c3ccc(Cl)cc3)CC2)c(C)[nH]1` (configuration not stated), the XC50 stood at 0.743 µM.

In turn, `CN1CCC(Oc2cc(CN3CC[C@H](NC(=O)c4ccc(Cl)c(Cl)c4)C3)ccc2I)C1` (some centres not stated) registered an XC50 of 0.843 µM.

`CCN(CC)c1ccc2nc(N)nc(N)c2c1`: the XC50 worked out at 0.0739 µM.

In turn, `O=C(Nc1ccccc1-c1nc2ccccc2s1)C(Cl)(Cl)Cl` had an XC50 of 0.638 µM.

`NC1CCN(Cc2cccc(-c3ccc(-c4nc5ccccc5[nH]4)cc3)c2)C1` (configuration not stated) came in with an XC50 of 0.83 µM.

`COc1ccc(CNCCc2cccs2)cc1-c1ccc(S(=O)(=O)NCCN2CCCC2)s1` had an XC50 of 0.877 µM.

`CN(C(=O)/C=C/c1cc(C(F)(F)F)ccc1F)C1CCN(CCCCCNC(=O)/C=C/c2ccc(Cl)c(Cl)c2)C1` (configuration not stated) returned an XC50 of 1.09 µM.

The compound `Nc1nc(-c2ccccn2)nc(-n2nc(-c3cccc(C(F)(F)F)c3)cc2N)n1` had an XC50 of 1.04 µM.

`CC[C@H]1CN2CC[C@H]1C[C@@H]2[C@@H](OC(=O)c1ccc(Cl)cc1)c1ccnc2ccc(OC)cc12`: the XC50 was found to be 0.922 µM.

The compound `O=C(Nc1ccc(-c2nc3ccccc3[nH]2)cc1)c1cccc([N+](=O)[O-])c1` registered an XC50 of 0.22 µM.

`Cc1ccc(O)c(-c2cc(C(=O)Nc3ccc(S(=O)(=O)N4CCCC(C)C4)cc3)[nH]n2)c1` (configuration not stated): the XC50 worked out at 0.707 µM.

With `O=C(N[C@@H](CC1CCCCC1)C(=O)NCCN1CCCC1)c1ccc(O)c(-c2ccc(Cl)c(Cl)c2)c1`, the XC50 was found to be 0.312 µM.

With `COC(=O)c1ccc(CC(C)NCC(O)c2cccc(I)c2)cc1` (configuration not stated), the XC50 worked out at 1.32 µM.

Compound `C=CC[C@H](C[C@H](O)[C@H](Cc1ccccc1)NC(=O)c1ccc(-c2cccnn2)cc1)C(=O)NC1CCCCC1` registered an XC50 of 1.19 µM.

For `COc1c(C2CCN(CCCCNC(=O)c3ccc(-c4ccc(C#N)cc4)c(O)c3)CC2)ccc2c1CCCC2`, the XC50 worked out at 0.199 µM.

`Clc1ncnc2ncn(Cc3cccc(Br)c3)c12` registered an XC50 of 1.06 µM.

`CN1CCN(c2ccnc3ccc(NC(=O)N(C)c4ccc(Cl)c(Cl)c4)cc23)CC1` gave an XC50 of 0.741 µM.

The compound `N=C(N)NC(=O)Nc1ccc(Cl)c([N+](=O)[O-])c1` registered an XC50 of 0.762 µM.

`O=C(NC1CCC(CCN2Cc3cccc(C(F)(F)F)c3C2)CC1)c1cccc(-c2cccnc2)c1` (configuration not stated): the XC50 was found to be 1.02 µM.

In turn, `OCCNc1nc(Nc2ccc(F)cc2)nc2ccccc12` gave an XC50 of 0.164 µM.

`COc1ccc2nccc([C@@H](O)CN3CCC(NCc4ccc5nc[nH]c(=O)c5c4)CC3)c2c1` gave an XC50 of 0.921 µM.

In turn, `CN1CCCN(Cc2ccc(-c3cccc(NC(=O)c4cccc(F)c4)c3)cc2)CC1` yielded an XC50 of 0.98 µM.

Turning to `Cc1nc2ccccc2c(O)c1[N+](=O)[O-]`, the XC50 was found to be 1.11 µM.

`CC1CCN(Cc2c(O)ccc3c(CN4CCC(C)CC4)c(O)ccc23)CC1` registered an XC50 of 0.133 µM.

In the case of `CCN1CCc2c1cc(C(=O)N[C@@H](Cc1ccccc1)[C@H](O)CNC(C)(C)c1cccc(C(F)(F)F)c1)cc2N1CCCCS1(=O)=O`, the XC50 worked out at 0.109 µM.

Turning to `O=C(/C=C/c1ccc(Cl)c(Cl)c1)NCCCCCN1CCC(NC(=O)Nc2cc(F)cc(F)c2)CC1`, the XC50 came out at 0.787 µM.

The compound `CCCC(CNCc1cccc(I)c1)CNc1cc(=O)c2ccccc2[nH]1` (configuration not stated) gave an XC50 of 0.471 µM.

As for `CCCCCN1CCCC(CNS(=O)(=O)c2ccc(C(=O)Nc3ccc(C(F)(F)F)cc3)cc2)C1` (configuration not stated), the XC50 was 0.916 µM.

As to `c1ccn2c(-c3ncnc(NCc4ccc5c(c4)CCO5)n3)cnc2c1`, the XC50 worked out at 1.19 µM.

The compound `CN1CCN(c2cccc(Nc3nccc(NCC(O)c4ccccc4)n3)c2)CC1` (configuration not stated) gave an XC50 of 0.718 µM.

For the compound `O=C(Nc1cccc(-c2ccc(-c3nc4cc(C(F)(F)F)ccc4[nH]3)cc2)c1)c1csnn1`, the XC50 was 0.686 µM.

Take `c1ccc(C(OCCC2CCN(Cc3cccc4cccnc34)CC2)c2ccccc2)cc1`: the XC50 came out at 0.874 µM.

`COc1cc2c(cc1OC)CC(NCCCCCCNCCc1ccc(Cl)cc1)CC2` (configuration not stated): the XC50 is 0.738 µM.

As to `Cc1ccc(F)c(OC2CCN(c3ccc(C(=O)NC4CC4)cn3)CC2)c1`, the XC50 came out at 0.823 µM.

Consider `O=C(NC1CCN(CCN2CCC(c3c[nH]c4ccccc34)CC2)CC1)c1ccc(-c2ccc(C(F)(F)F)cc2)cc1`, for which the XC50 was determined as 0.205 µM.

Turning to `CN1CCN(c2ccnc3cc4c(cc23)N(C(=O)Nc2ccc(-c3ccncc3)c3ccccc23)CC4)CC1`, the XC50 was found to be 0.945 µM.

In turn, `Cc1cc(C(=O)Nc2ccc3c(c2)CCN3C2CCN(Cc3cc(F)cc(F)c3F)C2)no1` (configuration not stated) showed an XC50 of 0.282 µM.

`COc1ccc2oc(=O)c(C#N)c(O)c2c1`: the XC50 turned out to be 0.211 µM.

For `Fc1ccc2nc(Nc3nc(-c4ccccn4)cs3)sc2c1`, the XC50 is 0.56 µM.

Take `O=C(NCc1ccc(Cl)cc1)c1ccc(C(=O)NCC2CCCN2CC2CCCCC2)cc1` (configuration not stated): the XC50 turned out to be 0.854 µM.

Turning to `c1ccc(-c2cc(NCc3cccc4ccccc34)c3[nH]ncc3n2)cc1`, the XC50 came out at 0.518 µM.

`Cc1cccc(N2CCN(Cc3cc(Cl)ccc3O)CC2)c1C` had an XC50 of 0.771 µM.

For the compound `CS(=O)(=O)Nc1ccc2[nH]cc(C3CCN(CC4CCC(NC(=O)/C=C/c5ccc(Cl)c(Cl)c5)CC4)CC3)c2n1` (configuration not stated), the XC50 worked out at 0.78 µM.
